Seven molecules from patent publication US20260242359A1, “IRHOM2 INHIBITORS AND USES THEREOF” (NEW YORK SOCIETY FOR THE RELIEF OF THE RUPTURED AND …, priority 2023, published 2026) can be followed below.

The structures appear in SMILES notation. Where only a bound is given, the exact number is not on record here.

Experiment [1] deals with PMA-induced release of endogenous HB-EGF from human peripheral blood mononuclear cells (PBMCs). The experiment is described as follows: Example 16: ELISA-based HB-EGF release assay, PMA-induced, PBMCs from healthy donor. The class given is cell-based. The note with it: 10 μM final concentration, PMA 25 ng/ml, delta Buffer stimulated vs unstimulated = 100% inhibition; for inhibition at 10 µM: Homo sapiens, PBMC. The protocol:
In the following study, ELISA-based HB-EGF release assays were performed to analyze the inhibitory effects of Compounds 1, 2, 3, 4, 5, and 7 on PMA-induced release of endogenous HB-EGF from primary human material obtained from healthy donor using peripheral blood mononuclear cells (PBMCs). The ELISA-based HB-EGF release assay that was used in this example is described below.
In brief, on day 1, Nunc black MaxiSorp® 96-well plates (Thermo Fisher Scientific, USA) were coated overnight with 100 μl per well of mouse anti-human HB-EGF capture antibody (provided as part of the DuoSet ELISA kit) at 2 μg/ml TBS at 4° C.
80,000 PBMCs from healthy donor (SciRhom GmbH, Germany) in 80 μl of normal growth medium were seeded in each well of Greiner CELLSTAR V-bottom 96-well plates (Greiner Bio-One, Germany) and pre-incubated with […] per well of standard growth medium supplemented with Batimastat (BB94, Abcam, UK) at 50 μM as positive control (for a final concentration of 10 μM in the resulting 100 μl sample volume), compounds of the invention at 50 μM (for a final concentration of 10 μM in the resulting 100 μl sample volume) and in case of Buffer stimulated and unstimulated controls with DMSO (Carl Roth, Germany) at 50 μM (for a final concentration of 10 μM in the resulting 100 μl sample volume) at 37° C., 5% CO2 for 30 minutes. Subsequently, cells (except those for unstimulated controls) were stimulated with 20 μl per well of PMA (Sigma-Aldrich, USA) at 150 ng/ml in growth medium for a final concentration of 25 ng/ml at 37° C., 5% CO2 for 22 hours.
On day 2, the capture antibody solution was removed and MaxiSorp® plates were blocked with 300 μl per well of TBS, 1% BSA at room temperature for 1-2 hours. Meanwhile, the 96-well plates were centrifuged to pellet cells. In parallel, blocking buffer was removed from the MaxiSorp® plates and plates were washed 4 times with 350 μl TBS-T (Carl Roth, Germany) per well on a 96-head plate washer (Tecan Group, Switzerland). To avoid drying-up, 30 μl TBS were added to each well of the MaxiSorp® plates immediately, followed by the transfer of 70 μl cell-free supernatant per sample. Additionally, 100 μl recombinant human HB-EGF protein (provided as part of the DuoSet ELISA kit) diluted in TBS at defined concentrations were added to the plate as standard references. Plates were incubated at room temperature for 2 hours. After 4 times washing with 350 μl TBS-T (Carl Roth, Germany) per well on a 96-head plate washer (Tecan Group, Switzerland) and careful removal of all buffer traces after the fourth cycle, 100 μl biotinylated goat anti-human HB-EGF detection antibody (provided as part of the DuoSet ELISA kit) at 50 ng/ml TBS were added per well and, protected from direct light, plates were incubated at room temperature for 2 hours.
After 4 times washing with 350 μl TBS-T (Carl Roth, Germany) per well on a 96-head plate washer (Tecan Group, Switzerland) and careful removal of all buffer traces after the fourth cycle, 100 μl streptavidin-AP (R&D Systems, USA) diluted 1:10,000 in TBS were added to each well and, again protected from direct light, plates were incubated at room temperature for 30 minutes. Following another round of 4 times washing with 350 μl TBS-T (Carl Roth, Germany) per well on a 96-head plate washer (Tecan Group, Switzerland) and careful removal of all buffer traces after the fourth cycle, 100 μl AttoPhos substrate solution (Promega, USA) per well was added for incubation in the dark at room temperature for 1 hour. Using an infinite M1000 (Tecan Group, Switzerland) microplate reader, the fluorescence of each well was collected at an excitation wavelength of 435 nm and an emission wavelength of 555 nm.
The delta between Buffer stimulated and Buffer unstimulated was defined 100% inhibition.

Experiment [2] has as its system PMA-stimulated TGFα release from HEK-293 cells (substrate of iRhom1/ADAM17 and iRhom2/ADAM17). The experiment is described as follows: Counter screen (Example 4b): PMA-stimulated TGFα release from HEK-293 cells, AP readout. The class given is cell-based. The following applies: Homo sapiens, HEK293, HEK-293 cells expressing TGFα-AP, PMA 100 ng/mL, 2 h. Here is the method: A tertiary counterscreen was also performed to monitor the release of TGFα, which is a substrate of iRhom1/ADAM17 and iRhom2/ADAM17, so its release should not be blocked by an iRhom2-selective inhibitor (Maretzky T et al. (July 2013), “iRhom2 controls the substrate selectivity of stimulated ADAM117-dependent ectodomain shedding”, PNAS 110(28): 11433-11438; and Li X et al. (May 2015), “iRhoms 1 and 2 are essential upstream regulators of ADAM17-dependent EGFR signaling”, PNAS 112(19): 6080-6085).
Expression plasmids for alkaline phosphatase (AP)-fused human KL2 and TGFα had been previously designed and generated through gene synthesis followed by subcloning into the pcDNA3.1(+)/Hygro expression vector. […] Subsequently, DNA amplifications were performed to obtain sufficient amounts of the expression vectors. The quality of DNA and gene sequences were confirmed through restriction digest and Sanger sequencing. In parallel, cell culture of HEK-293 cells was initiated. Master and working cell banks were prepared, scaled up and transfected with the respective constructs by electroporation. During cell culturing, cell density and viability were monitored to ensure optimal conditions for the transfections. After PMA stimulation, AP-coupled KL2 or TGFα were detected by measurement of AP activity in the supernatant.
After electroporation, cells were further cultured in presence of selection antibiotics, hygromycin B, to generate stably transfected polyclonal cell pools. For both assays, KL2 and TGFα shedding, the respective selected pool turned out to be suitable. Final assay conditions were determined for the selected pools. For all experiments, batimastat (BB94, 10 μM) was used as positive control for full inhibition of KL2 or TGFα shedding.
The wells of sterile 384-well flat bottom clear plates for TGF-AP assays were coated with 10 μL of 0.1 mg/mL poly-d-lysine for 3-4 hr at 25° C. or overnight at 4° C., then washed 2× with PBS and patted dry. 60 μL of cells (20,000/well) were added to the sterile 384-well plate and incubated in Optimem (with 2% FCS and 1% Pen-strep) overnight at 37° C. (5% CO2). After incubation overnight, 55 μL medium were removed with a BioTek EL406 and 10 μL of prediluted compounds were added to the cells for a final concentration of 20 μM. After incubation for 15 min, 15 μL of PMA (100 ng/mL final conc.) were added. The cells were incubated for 2 h at 37° C. (5% CO2). Then, the plates were centrifuged for 5 min at 1000 rpm and 12 μL of the supernatant was transferred to a fresh 384 well plate. 12 μL of pNPP p-nitrophenyl phosphate (final 1 M pNPP) was added. AP reaction was performed for 1 h at 37° C. The reaction was stopped by addition of 12 μL of NaOH (1 M final conc.), the plates were centrifuged to remove air bubbles and the absorbance of pNP was measured at 405 nm.

Turning to `CNC(=O)[C@H](Cc1ccccc1)NC(=O)[C@H](CC(C)C)[C@H](CSc1cccs1)C(=O)NO` [Batimastat, reference compound], the “inhibition of PMA-induced release of HB-EGF from PBMCs from healthy donor” value in experiment [1] (22 hours) was determined as 107.6%. Moreover, in experiment [1] (22 h), the inhibition at 10 µM was found to be 98.5%.
On to `CCC(=O)NCCc1c(/C=C2/C(=O)NC(=O)N(c3ccc(C)cc3C)C2=O)[nH]c2ccccc12` [Compound 1], for which the inhibition at 10 µM in experiment [1] (22 hours) is 101%.
For `CCOC(=O)c1ccc(Nc2nc3nonc3n3nnnc23)cc1` [Compound 2], the inhibition at 10 µM in experiment [1] (22 h) came to 100%.
On to `O=C(c1c(Cl)cccc1Cl)N1CCC(Cc2ccc(F)cc2)CC1` [Compound 3], for which, in experiment [1] (22 h), the inhibition at 10 µM worked out at 22.4%. The same molecule displayed an IC50 in experiment [2] above 40 µM.
The matching figures for `Cc1c(C(=O)NCc2cccs2)sc(=O)n1Cc1ccccc1` [Compound 4]: 38.7% and above 40 µM.
The matching figures for `Cc1c(C(=O)NCc2cccs2)sc(=O)n1Cc1ccccc1F` [Compound 5]: 34% and above 40 µM.
For `Cc1c(C(=O)NCc2ccco2)sc(=O)n1Cc1ccccc1F` [Compound 7], in that order: 107% and above 40 µM.
